This is an account of results in patent US7928139B2 (Amgen Inc., priority 2006, dated 2011).

The assay addresses HIF PHD2 (Homo sapiens, UniProt Q9GZT9). In words: PHD2 inhibition assay (TR-FRET, VCB-Eu detection of hydroxylated P564-HIF1α peptide). It counts as biochemical. Conditions: 2 nM PHD2, 100 nM P564-HIF1α peptide, 0.25 μM 2-oxoglutarate, 100 μM FeCl2, 2 mM ascorbic acid. The protocol: Inhibition of HIF PHD2 activity was quantified utilizing the TR-FRET technology. HIF PHD2 catalyzes a hydroxyl modification on the proline residue of the P564-HIF1α peptide substrate (Biotin-DLEMLAPYIPMDDDFQL (SEQ ID NO: 7)) resulting in recognition and binding of the europylated Von Hippel-Lindau protein (pVHL), elongin B and elongin C heterotrimeric (VCB-Eu) complex.
The PHD2 inhibition assay was executed by addition of freshly dissolved FeCl2 to 178.57 μM (100 μM final concentration) in PHD2 Reaction Buffer containing 30 mM MES, pH 6, 10 mM NaCl, 0.25% Brij-35, 0.01% BSA, and 1% DMSO. 28 μL of the iron solution and 2 μL of inhibitor compounds serially diluted in 100% DMSO (5% DMSO final) were added to black polypropylene 96-well microtiter plates. To that, 10 μL of 10 nM PHD2 (2 nM final) was added to all wells of the plate except for the 8 wells of column 12 (LO control), and allowed to incubate at room temperature on the shaker for one hour. Column 6 was the HI control containing PHD2 enzyme and 5% DMSO vehicle, but no inhibitor compound. To initiate the PHD2 enzymatic reaction, 10 μL of a solution containing 500 nM P564-HIF1α peptide (100 nM final), 10 mM ascorbic acid (2 mM final), and 1.25 μM 2-oxoglutarate (α-ketoglutarate; 0.25 μM final) in PHD2 Reaction Buffer was added to all wells of the plate and allowed to incubate on the shaker at room temperature for one hour.
The reaction was terminated by addition of 25 μL TR-FRET Buffer (50 mM TRIS-HCl, pH 9, 100 mM NaCl, 0.05% BSA, and 0.5% Tween-20) containing 150 mM succinate (product inhibitor; 50 mM final), 75 nM streptavidin-APC (25 nM final), and 7.5 nM VCB-Eu (2.5 nM final). The TR-FRET detection reagents were placed on a shaker for 1 hour to reach binding equilibrium before reading on the Discovery platform (PerkinElmer). Europium is excited at 315 nm and phosphoresces at 615 nm with a large Stoke's shift. APC, in turn, emits at 655 nm upon excitation at 615 nm. The TR-FRET signal is measured as the ratio of the APC 655 nm signal divided by the internal europium reference 615 nm emission signal.
The POC (percentage of control) was determined by comparing the signal from hydroxylated peptide substrate in the enzyme reaction containing inhibitor compound with that from PHD2 enzyme with DMSO vehicle alone (HI control), and no enzyme (LO control). POC was calculated using the formula: % control (POC)=(cpd−average LO)/(average HI−average LO)*100. Data (consisting of POC and inhibitor concentration in μM) was fitted to a 4-parameter equation (y=A+((B−A)/(1+((x/C)^D))), where A is the minimum y (POC) value, B is the maximum y (POC), C is the x (cpd concentration) at the point of inflection and D is the slope factor) using a Levenburg-Marquardt non-linear regression algorithm.
Background: Time-resolved FRET reads energy transfer from a long-lived donor to a nearby acceptor.

Sequence of HIF PHD2 (Q9GZT9 whole entry): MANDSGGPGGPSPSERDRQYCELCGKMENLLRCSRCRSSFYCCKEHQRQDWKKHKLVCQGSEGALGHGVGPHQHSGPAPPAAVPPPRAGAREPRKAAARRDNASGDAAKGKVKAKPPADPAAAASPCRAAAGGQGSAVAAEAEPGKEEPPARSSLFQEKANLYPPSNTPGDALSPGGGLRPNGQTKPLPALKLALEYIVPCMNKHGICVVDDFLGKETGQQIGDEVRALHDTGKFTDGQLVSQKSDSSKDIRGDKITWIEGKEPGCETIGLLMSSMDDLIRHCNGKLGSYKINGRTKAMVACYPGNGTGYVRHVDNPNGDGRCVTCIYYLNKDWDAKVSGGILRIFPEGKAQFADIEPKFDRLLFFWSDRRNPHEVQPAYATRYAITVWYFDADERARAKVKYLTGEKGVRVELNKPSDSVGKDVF

`O=C(O)CNC(=O)C1=C(O)c2cc(F)ccc2C2(CCOCC2)C1=O` [Example 17, N-((6-Fluoro-4-hydroxy-2-oxo-2′,3′,5′,6′-tetrahydro-spiro[naphthalene-1,4′-pyran]-3-yl)carbonyl)glycine]: the IC50 is less than 100 nM. The same measure for `COc1cccc2c1C(O)=C(C(=O)NCC(=O)O)C(=O)C21CCOCC1` [Example 18, N-((5-Methoxy-4-hydroxy-2-oxo-2′,3′,5′,6′-tetrahydro-spiro[naphthalene-1,4′-pyran]-3-yl)carbonyl)glycine]: less than 100 nM. The same measure for `COc1ccc2c(c1)C1(CCOCC1)C(=O)C(C(=O)NCC(=O)O)=C2O` [Example 19, N-((4-Hydroxy-7-(methyloxy)-2-oxo-2′,3′,5′,6′-tetrahydro-spiro[naphthalene-1,4′-pyran]-3-yl)carbonyl)glycine]: less than 100 nM; for `CC1(C)C(=O)C(C(=O)NCC(=O)O)=C(O)c2ccc(OCc3ccccc3)c(F)c21` [Example 20, N-((8-Fluoro-4-hydroxy-1,1-dimethyl-2-oxo-7-((phenylmethyl)oxy)-naphthalen-3-yl)carbonyl)glycine]: 100 to 500 nM. The same measure for `CC(C)COc1ccc2c(c1F)C(C)(C)C(=O)C(C(=O)NCC(=O)O)=C2O` [Example 21, N-((8-Fluoro-4-hydroxy-1,1-dimethyl-7-((2-methylpropyl)oxy)-2-oxo-naphthalen-3-yl)carbonyl)glycine]: 100 to 500 nM. `COc1ccc2c(c1F)C(C)(C)C(=O)C(C(=O)NCC(=O)O)=C2O` [Example 22, N-((8-Fluoro-4-hydroxy-1,1-dimethyl-7-(methyloxy)-2-oxo-naphthalen-3-yl)carbonyl)glycine] displayed an IC50 of 100 to 500 nM. The same measure for `CC1(C)C(=O)C(C(=O)NCC(=O)O)=C(O)c2ccc(O)c(F)c21` [Example 23, N-((8-Fluoro-4,7-dihydroxy-1,1-dimethyl-2-oxo-naphthalen-3-yl)carbonyl)glycine]: less than 100 nM. The same measure for `CC1(C)C(=O)C(C(=O)NCC(=O)O)=C(O)c2ccc(F)c(F)c21` [Example 24, N-((7,8-Difluoro-4-hydroxy-1,1-dimethyl-2-oxo-naphthalen-3-yl)carbonyl)glycine]: less than 100 nM; for `O=C(O)CNC(=O)C1=C(O)c2cc(Cl)ccc2C2(CCCC2)C1=O` [Example 25, N-((6′-Chloro-4′-hydroxy-2′-oxo-spiro[cyclopentane-1,1′-naphthalen]-3′-yl)carbonyl)glycine]: 100 to 500 nM.

`CC1(C)C(=O)C(C(=O)NCC(=O)O)=C(O)c2c(C(F)(F)F)cccc21` [Example 26, N-((4-Hydroxy-1,1-dimethyl-2-oxo-5-(trifluoromethyl)-naphthalen-3-yl)carbonyl)glycine]: the IC50 fell in the range of 100 to 500 nM. Compound `CC1(C)C(=O)C(C(=O)NCC(=O)O)=C(O)c2cccc(F)c21` [Example 27, N-((8-Fluoro-4-hydroxy-1,1-dimethyl-2-oxo-naphthalen-3-yl)carbonyl)glycine] had an IC50 of less than 100 nM. The same measure for `CC1(C#N)C(=O)C(C(=O)NCC(=O)O)=C(O)c2ccccc21` (stereo not shown) [Example 28, N-((1-Cyano-4-hydroxy-1-methyl-2-oxo-naphthalen-3-yl)carbonyl)glycine]: less than 100 nM.

As for `CC1(C)C(=O)C(C(=O)NCC(=O)O)=C(O)c2ccc(Cl)c(Cl)c21` [Example 31, N-((7,8-Dichloro-4-hydroxy-1,1-dimethyl-2-oxo-naphthalen-3-yl)carbonyl)glycine], the IC50 was less than 100 nM.

As to `CC1(C)C(=O)C(C(=O)NCC(=O)O)=C(O)c2cc(-c3ccc(F)cc3)ccc21` [Example 32, N-((6-(4-Fluorophenyl)-4-hydroxy-1,1-dimethyl-2-oxo-naphthalen-3-yl)carbonyl)glycine], the IC50 lay within 100 to 500 nM. The value for `CSc1ccc2c(c1)C(O)=C(C(=O)NCC(=O)O)C(=O)C2(C)C` [Example 33, N-((4-Hydroxy-1,1-dimethyl-6-(methylthio)-2-oxo-naphthalen-3-yl)carbonyl)glycine] was less than 100 nM; that for `CC1(c2ccc(Cl)cc2)C(=O)C(C(=O)NCC(=O)O)=C(O)c2cc(Cl)ccc21` (stereo not shown) [Example 34, N-((6-Chloro-1-(4-chlorophenyl)-4-hydroxy-1-methyl-2-oxo-naphthalen-3-yl)carbonyl)glycine] was 100 to 500 nM. The value for `CN(C)c1ccccc1-c1ccc2c(c1)C(O)=C(C(=O)NCC(=O)O)C(=O)C2(C)C` [Example 35, N-((6-(2-(Dimethylamino)phenyl)-4-hydroxy-1,1-dimethyl-2-oxo-naphthalen-3-yl)carbonyl)glycine] was 100 to 500 nM; that for `CN(C)c1ccc(-c2ccc3c(c2)C(O)=C(C(=O)NCC(=O)O)C(=O)C3(C)C)cc1` [Example 36, N-((6-(4-(Dimethylamino)phenyl)-4-hydroxy-1,1-dimethyl-2-oxo-naphthalen-3-yl)carbonyl)glycine] was 100 to 500 nM. The same measure for `CC1(C)C(=O)C(C(=O)NCC(=O)O)=C(O)c2cc(-c3ccccc3Cl)ccc21` [Example 37]: 500 to 1000 nM; for `CC1(C)C(=O)C(C(=O)NCC(=O)O)=C(O)c2cc(-c3ccc(Cl)cc3)ccc21` [Example 38, N-((6-(4-Chlorophenyl)-4-hydroxy-1,1-dimethyl-2-oxo-naphthalen-3-yl)carbonyl)glycine]: 500 to 1000 nM. The compound `CN(C)c1cccc(-c2ccc3c(c2)C(O)=C(C(=O)NCC(=O)O)C(=O)C3(C)C)c1` [Example 39, N-((6-(3-(Dimethylamino)phenyl)-4-hydroxy-1,1-dimethyl-2-oxo-naphthalen-3-yl)carbonyl)glycine] displayed an IC50 of 100 to 500 nM. The same measure for `CC1(C)C(=O)C(C(=O)NCC(=O)O)=C(O)c2cc(Br)ccc21` [Example 40, N-((6-Bromo-4-hydroxy-1,1-dimethyl-2-oxo-naphthalen-3-yl)carbonyl)glycine]: less than 100 nM; for `CC1(C)C(=O)C(C(=O)NCC(=O)O)=C(O)c2ccc(C#N)cc21` [Example 41, N-((7-Cyano-4-hydroxy-1,1-dimethyl-2-oxo-naphthalen-3-yl)carbonyl)glycine]: less than 100 nM; for `CC1(C)C(=O)C(C(=O)NCC(=O)O)=C(O)c2cc(C#N)ccc21` [Example 42, N-((6-Cyano-4-hydroxy-1,1-dimethyl-2-oxo-naphthalen-3-yl)carbonyl)glycine]: less than 100 nM.

The compound `CCC1(C)C(=O)C(C(=O)NCC(=O)O)=C(O)c2ccc(Cl)cc21` (stereo not shown) [Example 43, N-((7-Chloro-1-ethyl-4-hydroxy-1-methyl-2-oxo-naphthalen-3-yl)carbonyl)glycine] displayed an IC50 of 100 to 500 nM. The compound `O=C(O)CNC(=O)C1=C(O)c2ccc(F)cc2C2(CCOCC2)C1=O` [Example 44, N-((7-Fluoro-4-hydroxy-2-oxo-2′,3′,5′,6′-tetrahydro-spiro[naphthalene-1,4′-pyran]-3-yl)carbonyl)glycine] displayed an IC50 of less than 100 nM. The same measure for `O=C(O)CNC(=O)C1=C(O)c2ccc(C(F)(F)F)cc2C2(CCOCC2)C1=O` [Example 45, N-((7-Trifluoromethyl-4-hydroxy-2-oxo-2′,3′,5′,6′-tetrahydro-spiro[naphthalene-1,4′-pyran]-3-yl)carbonyl)glycine]: less than 100 nM; for `O=C(O)CNC(=O)C1=C(O)c2ccc(Cl)cc2C2(CCOCC2)C1=O` [Example 46, N-((7-Chloro-4-hydroxy-2-oxo-2′,3′,5′,6′-tetrahydro-spiro[naphthalene-1,4′-pyran]-3-yl)carbonyl)glycine]: less than 100 nM. The value for `CC1(C)C(=O)C(C(=O)NCC(=O)O)=C(O)c2ccc(F)cc21` [Example 47, N-((7-Fluoro-4-hydroxy-1,1-dimethyl-2-oxo-naphthalen-3-yl)carbonyl)glycine] was less than 100 nM; that for `CC1(C)C(=O)C(C(=O)NCC(=O)O)=C(O)c2ccc(Cl)cc21` [Example 48, N-((7-Chloro-4-hydroxy-1,1-dimethyl-2-oxo-naphthalen-3-yl)carbonyl)glycine] was less than 100 nM; that for `CC1(C)C(=O)C(C(=O)NCC(=O)O)=C(O)c2ccc(C(F)(F)F)cc21` [Example 49, N-((7-Trifluoromethyl-4-hydroxy-1,1-dimethyl-2-oxo-naphthalen-3-yl)carbonyl)glycine] was less than 100 nM.

One may read the IC50 as the concentration that gives 50% inhibition. Low readings indicate greater potency in that assay, high ones weaker potency in that assay.
